Reference: the NIST ThermoML archive (doi:10.1021/je034012m)
Where “and” joins values, the source holds several entries; their conditions need not be identical. Equal entries are not always repeated.

Settings: Crystal

O.O.[Ba+2].[Cl-].[Cl-] [barium chloride dihydrate]
Settings | vapor or sublimation pressure
295.45 K | 0.5 kPa
295.55 K | 0.39 kPa and 0.53 kPa
295.65 K | 0.56 kPa
297.35 K | 0.31 kPa
304.25 K | 1.22 kPa
304.55 K | 0.9 kPa
306.35 K | 1.01 kPa
306.95 K | 1.31 kPa
307.25 K | 1.39 kPa
307.35 K | 1.04 kPa
308.25 K | 1.19 kPa
309.45 K | 1.3 kPa
319.05 K | 2.5 kPa
321.15 K | 2.66 kPa
323.15 K | 3.88 kPa
323.45 K | 3.85 kPa
323.75 K | 3.97 kPa
324.15 K | 4.05 kPa
324.85 K | 5.15 kPa
325.55 K | 5.1 kPa
336.95 K | 9.4 kPa
343.65 K | 13.59 kPa

O.[Ba+2].[Cl-].[Cl-] [barium chloride monohydrate]
Settings | vapor or sublimation pressure
290.45 K | 0.086 kPa
304.15 K | 0.173 kPa
304.45 K | 0.146 kPa
305.25 K | 0.138 kPa
307.25 K | 0.133 kPa
307.45 K | 0.231 kPa
307.95 K | 0.17 kPa
308.05 K | 0.142 kPa
308.45 K | 0.248 kPa and 0.272 kPa
308.65 K | 0.241 kPa
308.95 K | 0.105 kPa
309.05 K | 0.195 kPa
309.25 K | 0.344 kPa
310.15 K | 0.199 kPa
311.45 K | 0.16 kPa
312.95 K | 0.24 kPa
313.45 K | 0.274 kPa
315.35 K | 0.35 kPa
315.95 K | 0.4 kPa
316.15 K | 0.76 kPa
318.45 K | 0.312 kPa
322.85 K | 0.6 kPa
323.55 K | 0.6 kPa
334.45 K | 1.04 kPa and 1.1 kPa
334.85 K | 1.01 kPa
334.95 K | 0.96 kPa
335.45 K | 1.26 kPa
337.45 K | 1.51 kPa
337.65 K | 1.47 kPa
344.95 K | 2.06 kPa
345.25 K | 2.05 kPa
